Measured values taken from ChEMBL document CHEMBL4825741, “Novel Histone Acetyltransferase (HAT) Inhibitors for Treating Diseases” (ACS Med Chem Lett, 2021).

Experiment: Inhibition of p300/CBP HAT (unknown origin) by scintillation proximity assay
Design: species or system Homo sapiens

Row | IC50 | Compound
1 | 0.014 µM | CC(=O)N1CC(Oc2ccc(NC(=O)[C@@H](NC[C@@H](C)c3ccc(C#N)cc3)c3ccccc3)nc2)C1
2 | 0.0267 µM | CC(CN[C@H](C(=O)Nc1ccc(OC2CCN(C(=O)C3CC3)CC2)cn1)c1ccccc1)c1ccc(C#N)cc1 (stereo partly specified)
3 | 0.0266 µM | CN1CCC(Oc2ccc(NC(=O)[C@H](NCCc3ccc(Cl)cc3)c3ccccc3)nc2)CC1
4 | 0.0168 µM | Cn1cc(COc2ccc(NC(=O)[C@@H](NCCc3ccc(Cl)cc3)c3ccccc3)nc2)cn1
5 | 0.0212 µM | CC(=O)N1CC(Oc2ccc(NC(=O)[C@H](NC[C@@H](C)c3ccc(C#N)cc3)c3ccccc3)nc2)C1
6 | 0.0233 µM | CC(=O)N1CC(Oc2ccc(NC(=O)[C@H](NCC(C)c3ccc(C#N)cc3)c3cccc(F)c3)nc2)C1 (stereo partly specified)
